Values after ≈ are worked out from the molar mass of the structure shown. Values joined by “and” are separate entries in the source; they are usually repeats but may differ in a detail not shown here. Equal entries are not always repeated. Where two headings read alike, the source gives them in different places.

For data set [1], the target named is T1, SaHPPK (Staphylococcus aureus, UniProt A0A0H3JXR3). As to the kind of experiment: biochemical. The class given is binding.
In data set [2] the target is T1, SaHPPK. As to the kind of experiment: Surface plasmon resonance (SPR) with biotinylated SaHPPK on NeutrAvidin chip. The class given is binding. For orientation: Surface plasmon resonance follows binding to a sensor surface in real time, without labels.
The target in data set [3] is T1, SaHPPK. Description: KinaseGlo luminescent biochemical assay of HPPK activity. In general terms: Kinase-Glo reads ATP consumption through a luciferase reaction.
For data set [4], the system named is SaHPPK. As to the kind of experiment: Differential scanning fluorimetry (DSF) assay for ligand binding. Details: species or system Staphylococcus aureus. Particulars: for increase in unfolding temperature (Tm): saturating ligand. The method, then: A 96-well plate containing solutions of 2–5 µM SaHPPK, 10× Sypro orange dye and 500 µM of test compound in buffer (50 mM HEPES (pH 8.0), 1% sorbitol, 2.0 mM DTT, 10 mM MgCl2) was heated from […] at a rate of 1.0 K min^−1. The fluorescence intensity was measured with excitation/emission wavelengths of 583/610 nm. Tm and ΔTm values were determined from the melting curves obtained.
(In general: DSF heats the sample and reads unfolding from a dye or from intrinsic fluorescence.)

Data set [5] deals with E. coli. Description: E. coli cell-based growth inhibition assays. Particulars: data not shown.
Data set [6] in a line: Solubility estimated from ITC experiments. The class given is physicochemical. Particulars: ITC buffer, estimated assuming 1:1 binding stoichiometry.
In data set [7] the target is T1, SaHPPK. The format is binding.
Data set [8] relates to B. anthracis DHPS. Particulars: co-crystallisation; cited from earlier work.
On the set-up of data set [9]: method as in PMID 17511860. Particulars: in vivo mouse model; cited from earlier work.
Data set [10] deals with EcHPPK. Particulars: cited from earlier work.
For data set [11], the system named is E. coli HPPK. Particulars: read-out: Km for the E. coli enzyme; different assays; cited from earlier work.
Where [12] appears, read: ITC, 298 K, in the presence of 1 mM AMPCPP.
Where [13] appears, read: ITC, 298 K, ligand alone, read-out: K d ITC.
The mark [14] stands for this setting: SPR steady-state, 293 K, ligand alone, read-out: K d SPR.
Where [15] appears, read: in the absence of Mg2+, data not shown.
The mark [16] stands for this setting: SPR, 1:1 kinetic interaction model.
Setting [17] is: fluorescence-based methods, in the presence of Mg2+, read-out: binding affinity (K d) of EcHPPK.
The mark [18] stands for this setting: read-out: dissociation constant for EcHPPK.

T1 sequence (A0A0H3JXR3 entry or part of it): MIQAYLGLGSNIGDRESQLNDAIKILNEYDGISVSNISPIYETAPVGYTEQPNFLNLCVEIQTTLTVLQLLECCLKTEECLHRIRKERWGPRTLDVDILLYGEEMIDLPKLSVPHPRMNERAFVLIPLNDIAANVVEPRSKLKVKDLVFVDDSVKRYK

Broadly, the IC50 is the point on the concentration scale where inhibition reaches its midpoint. The solubility is how much of the substance goes into solution per volume. As for `Nc1nc2nc(S)[nH]c2c(=O)[nH]1` [8-mercaptoguanine], the “N (binding stoichiometry)” value came to 0.96±0.09 in data set [1] (setting [12]) and 1.00±0.06 in [1] (ITC, 298 K, ligand alone). In addition, the TΔS in data set [1] (setting [12]) is -10.4 ± 1.5 kcal/mol; in [1] (ITC, 298 K, ligand alone), -12.9 ± 3.5 kcal/mol. For the same compound, the ΔG in data set [1] (setting [12]) is -6.8 ± 0.1 kcal/mol; in data set [1] (ITC, 298 K, ligand alone), -6.7 ± 0.2 kcal/mol. Besides, the ΔH in data set [1] (setting [12]) was -17.2 ± 1.4 kcal/mol; in [1] (ITC, 298 K, ligand alone) it was -19.6 ± 3.4 kcal/mol. In addition, the Kd is 11.3 ± 2.3 µM in data set [1] (ITC, 298 K, in the presence of 1 mM AMPCPP, read-out: K d ITC); 12.8 ± 3.4 µM in [1] (setting [13]); ~13 µM and ~12 µM in data set [1] (absence of cofactor, read-out: equilibrium dissociation constant Kd, summary value from ITC and SPR); 8.1 ± 1.6 µM in data set [2] (SPR steady-state, 293 K, in the presence of 5 mM ATP, read-out: K d SPR); 10.8 ± 0.4 µM in [2] (setting [14]). This compound also came in with a ligand efficiency in data set [1] (K d ∼13 µM over 12 heavy atoms) of 2.3 kJ/heavy atom. Moreover, the “times more tightly bound than HMDP” value in data set [2] is roughly 10 times. Further, the IC50 in [3] (HMDP 0.3 µM, ATP 0.2 µM, read-out: IC50 for inhibition of SaHPPK) is 41 µM and ~41 µM. Moreover, the “increase in Tm compared to apo” value in [4] (500 µM ligand, 5 µM enzyme) stood at 3.4 °C. The growth inhibition entry in data set [5] is reported as “did not observe growth inhibition”. Further, the solubility in [6] is roughly 300 µM (≈ 55 µg/mL). Besides, the “K d indicated by NMR exchange regime” value in data set [7] is “low µM range”. Moreover, the “binding and inhibition of B. anthracis DHPS” value in data set [8] is on record as “bind to, but not inhibit”. In addition, the “antiviral activity and toxicity” value in data set [9] is given as “Antiviral activity,without significant toxicity”.
Consider `Nc1ncnc2c1ncn2[C@@H]1O[C@H](COP(=O)(O)OP(=O)(O)O)[C@@H](O)[C@H]1O` [ADP], for which the Kd in data set [2] (setting [14]) came out at 760 ± 16 µM.
For the compound `Nc1ncnc2c1ncn2C1OC(COP(=O)(O)CP(=O)(O)OP(=O)(O)O)C(O)C1O` (stereo not drawn) [AMPCPP, α,β-methylene adenosine 5′-triphosphate], the “fold tighter binding than ATP” value in data set [1] (ITC affinity ratio) is listed as “approximately 10 fold”. In addition, in data set [1] (ITC, 298 K, ligand alone), the “N (binding stoichiometry)” value is reported as 1.06±0.12, the TΔS was 1.3 ± 1.0 kcal/mol, the ΔG is -7.5 ± 0.2 kcal/mol and the ΔH is -6.3 ± 1.0 kcal/mol. Moreover, the Kd in [1] (setting [13]) stood at 3.1 ± 1.2 µM. For the same compound, the “binding by ITC” value in [1] (setting [15]) is given as “no significant binding”. Moreover, the Kd in data set [2] (setting [14]) came out at 7.7 ± 0.4 µM. Also, in data set [2] (setting [16]), the k a was 8.8±1.3×10^4 M^−1 s^−1 and the k d was 0.5 ± 0.1 s⁻¹. The Kd in data set [2] (SPR, from k d/k a ratio, read-out: K d from kinetic interaction model) was 5.4 ± 0.3 µM. The “increase in unfolding temperature (Tm)” value in data set [4] stood at 11 °C. In addition, the Kd in data set [10] (setting [17]) is 0.08 to 0.45 µM. Besides, in data set [10] (setting [18]), the Kd is 0.45 µM.
On to `Nc1ncnc2c1ncn2[C@@H]1O[C@H](COP(=O)(O)O)[C@@H](O)[C@H]1O` [AMP], for which the Kd in [2] (setting [14]) amounted to 4900 ± 1100 µM.
What is called Km is the concentration of substrate that gives half-maximal velocity. With `Nc1ncnc2c1ncn2[C@@H]1O[C@H](COP(=O)(O)OP(=O)(O)OP(=O)(O)O)[C@@H](O)[C@H]1O` [ATP], in data set [1] (ITC, 298 K, ligand alone), the “N (binding stoichiometry)” value was determined as 0.98±0.11, the TΔS is -0.3 ± 0.5 kcal/mol, the ΔG is -6.2 ± 0.1 kcal/mol and the ΔH is -6.5 ± 0.4 kcal/mol. The Kd in data set [1] (setting [13]) worked out at 31 ± 4.5 µM. In data set [1] (setting [15]), the “binding by ITC” value is “no significant binding”. For the same compound, the Kd in [2] (setting [14]) is ~45 µM and 45 µM. Further, the Km in [3] (KinaseGlo assay, read-out: Km app) came to 10.8 ± 2.5 µM. The “increase in unfolding temperature (Tm)” value in data set [4] was determined as 6 °C. Also, the Kd in data set [10] (setting [17]) was 2.6 to 4.5 µM. Moreover, in data set [10] (setting [18]), the Kd is 2.6 µM.
Consider `Nc1nc2c(c(=O)[nH]1)N=C(CO)CN2` [HMDP, 6-hydroxymethyl-7,8-dihydropterin], for which, in data set [1] (setting [12]), the “N (binding stoichiometry)” value was 1.23±0.15, the TΔS was -3.1 ± 0.9 kcal/mol, the ΔG was -7.4 ± 0.2 kcal/mol and the ΔH was -10.5 ± 1.0 kcal/mol. The Kd in data set [1] (K d ITC, ITC, 298 K, in the presence of 1 mM AMPCPP) was ~4 µM and 4 µM. The “binding by ITC” value in data set [1] (in the presence of the inhibitor 8-mercaptoguanine) is given as “could not be detected”. Also, the Kd in data set [2] (K d SPR, SPR steady-state, 293 K, in the presence of AMPCPP) was found to be 3.6 ± 0.3 µM. Moreover, the Kd in data set [2] (K d SPR, SPR steady-state, 293 K, ligand alone) is ~100 µM and 100 µM. In addition, the Kd in data set [10] (in the presence of Mg2+ and AMPCPP, read-out: binding affinity of EcHPPK) was 0.036 to 0.17 µM. Besides, the Km in [11] is 0.7 to 1.6 µM.
For the compound `Nc1nc2nc[nH]c2c(=O)[nH]1` [guanine], the “affinity by SPR” value in data set [2] (data not shown) is listed as “undetectable”.
Regarding Mg-GTP, in data set [10], the “affinity of EcHPPK, fold less than for Mg-ATP” value was 260 fold.

The record behind these values is PMC3261883, “Structure of S. aureus HPPK and the Discovery of a New Substrate Site Inhibitor” (PLoS ONE, 2012).
